Measurements from the supplement of paper PMC10307832.

Tests used:
Assay in all cases: relative viability (nuclei count vs DMSO), 5 days (fraction); higher = more cells survive
LC-2-ad = tested on: LC-2-ad
Procedure, shortened: (§1)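 Relative viability divides the nuclei count in treated wells by that in vehicle wells. Lung cancer cell lines were seeded in 1536-well plates, dosed by pin tool the next day, and fixed and stained after 5 days in one step with final 0.05% Triton X-100, 1% formaldehyde and 1 ug/ml Hoechst. Dosing was a single drug or a fixed anchor-drug dose plus five library-drug doses (not always all listed) in √10 steps, and values are medians of duplicate plates imaged at 4×.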

NCI-H838 = tested on: NCI-H838
Procedure, shortened: as §1

LK-2 = tested on: LK-2
Procedure, shortened: as §1

SK-LU-1 = tested on: SK-LU-1
Procedure, shortened: as §1

NCI-H2009 = tested on: NCI-H2009
Procedure, shortened: as §1

ChaGo-K-1 = tested on: ChaGo-K-1
Procedure, shortened: as §1

NCI-H2405 = tested on: NCI-H2405
Procedure, shortened: as §1

HARA = tested on: HARA
Procedure, shortened: as §1

EMC-BAC-2 = tested on: EMC-BAC-2
Procedure, shortened: as §1

NCI-H2023 = tested on: NCI-H2023
Procedure, shortened: as §1

A-427 = tested on: A-427
Procedure, shortened: as §1

ABC-1 = tested on: ABC-1
Procedure, shortened: as §1

HCC-78 = tested on: HCC-78
Procedure, shortened: as §1

NCI-H1734 = tested on: NCI-H1734
Procedure, shortened: as §1

HCC-15 = tested on: HCC-15
Procedure, shortened: as §1

NCI-H1650 = tested on: NCI-H1650
Procedure, shortened: as §1

NCI-H1993 = tested on: NCI-H1993
Procedure, shortened: as §1

COR-L23 = tested on: COR-L23
Procedure, shortened: as §1

NCI-H1944 = tested on: NCI-H1944
Procedure, shortened: as §1

NCI-H23 = tested on: NCI-H23
Procedure, shortened: as §1

UMC-11 = tested on: UMC-11
Procedure, shortened: as §1

HCC-366 = tested on: HCC-366
Procedure, shortened: as §1

NCI-H1793 = tested on: NCI-H1793
Procedure, shortened: as §1

NCI-H2228 = tested on: NCI-H2228
Procedure, shortened: as §1

SMILES: C[C@@H]1CN(CC(=O)Nc2ccc3c(c2)Cc2cccc(-c4cc(=O)cc(N5CCOCC5)o4)c2S3)C[C@H](C)O1 + O=C(CCCCCCC(=O)Nc1ccccc1)NO [Vorinostat] (partner 1 µM)
- relative viability (LC-2-ad; first compound 0.04 µM): 0.639
- relative viability (LC-2-ad; first compound 0.1265 µM): 0.679
- relative viability (LC-2-ad; first compound 0.4 µM): 0.712
- relative viability (LC-2-ad; first compound 4 µM): 0.606
- relative viability (NCI-H838; first compound 0.04 µM): 0.751
- relative viability (NCI-H838; first compound 0.1265 µM): 0.646
- relative viability (NCI-H838; first compound 0.4 µM): 0.633
- relative viability (NCI-H838; first compound 4 µM): 0.535
- relative viability (LK-2; first compound 0.04 µM): 0.314
- relative viability (LK-2; first compound 0.1265 µM): 0.309
- relative viability (LK-2; first compound 0.4 µM): 0.254
- relative viability (LK-2; first compound 4 µM): 0.298
- relative viability (SK-LU-1; first compound 0.04 µM): 0.765
- relative viability (SK-LU-1; first compound 0.1265 µM): 0.831
- relative viability (SK-LU-1; first compound 0.4 µM): 0.811
- relative viability (SK-LU-1; first compound 4 µM): 0.568
- relative viability (NCI-H2009; first compound 0.04 µM): 0.635
- relative viability (NCI-H2009; first compound 0.1265 µM): 0.772
- relative viability (NCI-H2009; first compound 0.4 µM): 0.664
- relative viability (NCI-H2009; first compound 4 µM): 0.497
- relative viability (ChaGo-K-1; first compound 0.04 µM): 0.496
- relative viability (ChaGo-K-1; first compound 0.1265 µM): 0.778
- relative viability (ChaGo-K-1; first compound 0.4 µM): 0.803
- relative viability (ChaGo-K-1; first compound 4 µM): 0.72
- relative viability (NCI-H2405; first compound 0.04 µM): 1.06
- relative viability (NCI-H2405; first compound 0.1265 µM): 1.12
- relative viability (NCI-H2405; first compound 0.4 µM): 0.94
- relative viability (NCI-H2405; first compound 4 µM): 1.01
- relative viability (HARA; first compound 0.04 µM): 0.511
- relative viability (HARA; first compound 0.1265 µM): 0.61
- relative viability (HARA; first compound 0.4 µM): 0.445
- relative viability (HARA; first compound 4 µM): 0.436
- relative viability (EMC-BAC-2; first compound 0.04 µM): 0.397
- relative viability (EMC-BAC-2; first compound 0.1265 µM): 0.468
- relative viability (EMC-BAC-2; first compound 0.4 µM): 0.469
- relative viability (EMC-BAC-2; first compound 4 µM): 0.54
- relative viability (NCI-H2023; first compound 0.04 µM): 0.578
- relative viability (NCI-H2023; first compound 0.1265 µM): 0.59
- relative viability (NCI-H2023; first compound 0.4 µM): 0.581
- relative viability (NCI-H2023; first compound 4 µM): 0.505
- relative viability (A-427; first compound 0.04 µM): 0.853
- relative viability (A-427; first compound 0.1265 µM): 0.92
- relative viability (A-427; first compound 0.4 µM): 0.908
- relative viability (A-427; first compound 4 µM): 0.779
- relative viability (ABC-1; first compound 0.04 µM): 0.917
- relative viability (ABC-1; first compound 0.1265 µM): 1.14
- relative viability (ABC-1; first compound 0.4 µM): 1.23
- relative viability (ABC-1; first compound 4 µM): 1.27
- relative viability (HCC-78; first compound 0.04 µM): 0.455
- relative viability (HCC-78; first compound 0.1265 µM): 0.417
- relative viability (HCC-78; first compound 0.4 µM): 0.46
- relative viability (HCC-78; first compound 4 µM): 0.4
- relative viability (NCI-H1734; first compound 0.04 µM): 0.602
- relative viability (NCI-H1734; first compound 0.1265 µM): 0.768
- relative viability (NCI-H1734; first compound 0.4 µM): 0.812
- relative viability (NCI-H1734; first compound 4 µM): 0.901
- relative viability (HCC-15; first compound 0.04 µM): 0.825
- relative viability (HCC-15; first compound 0.1265 µM): 0.769
- relative viability (HCC-15; first compound 0.4 µM): 0.729
- relative viability (HCC-15; first compound 4 µM): 0.663
- relative viability (NCI-H1650; first compound 0.04 µM): 0.604
- relative viability (NCI-H1650; first compound 0.1265 µM): 0.488
- relative viability (NCI-H1650; first compound 0.4 µM): 0.588
- relative viability (NCI-H1650; first compound 4 µM): 0.517
- relative viability (NCI-H1993; first compound 0.04 µM): 0.911
- relative viability (NCI-H1993; first compound 0.1265 µM): 0.78
- relative viability (NCI-H1993; first compound 0.4 µM): 0.626
- relative viability (NCI-H1993; first compound 4 µM): 0.735
- relative viability (COR-L23; first compound 0.04 µM): 0.433
- relative viability (COR-L23; first compound 0.1265 µM): 0.451
- relative viability (COR-L23; first compound 0.4 µM): 0.473
- relative viability (COR-L23; first compound 4 µM): 0.333
- relative viability (NCI-H1944; first compound 0.1265 µM): 0.716
- relative viability (NCI-H1944; first compound 0.4 µM): 0.594
- relative viability (NCI-H1944; first compound 4 µM): 0.637
- relative viability (NCI-H23; first compound 0.04 µM): 0.634
- relative viability (NCI-H23; first compound 0.1265 µM): 0.508
- relative viability (NCI-H23; first compound 0.4 µM): 0.537
- relative viability (NCI-H23; first compound 4 µM): 0.589
- relative viability (UMC-11; first compound 0.04 µM): 0.378
- relative viability (UMC-11; first compound 0.1265 µM): 0.433
- relative viability (UMC-11; first compound 0.4 µM): 0.441
- relative viability (UMC-11; first compound 4 µM): 0.366
- relative viability (HCC-366; first compound 0.04 µM): 0.314
- relative viability (HCC-366; first compound 0.1265 µM): 0.366
- relative viability (HCC-366; first compound 0.4 µM): 0.346
- relative viability (HCC-366; first compound 4 µM): 0.264
- relative viability (NCI-H1793; first compound 0.04 µM): 0.847
- relative viability (NCI-H1793; first compound 0.1265 µM): 0.745
- relative viability (NCI-H1793; first compound 0.4 µM): 0.762
- relative viability (NCI-H1793; first compound 4 µM): 0.574
- relative viability (NCI-H2228; first compound 0.04 µM): 0.667
- relative viability (NCI-H2228; first compound 0.1265 µM): 0.589
- relative viability (NCI-H2228; first compound 0.4 µM): 0.852
- relative viability (NCI-H2228; first compound 4 µM): 0.569
